Measured values: patent publication US7687609B2, “Galectin-glycosaminoglycan complex and method for controlling galectin activity” (National Institute of Advanced Industrial Science and …, priority 2006, dated 2010)

How the values were obtained:
Assay type in all cases: binding
Galectin-1 = molecular target: T1, Galectin-1 (Homo sapiens, UniProt P09382); assay: FAC affinity test on galectin-immobilized column; settings: for V − V0 Value: pyridyl-aminated carbohydrate, galectin-1 immobilized 0.8 mg/ml, less than 5 μl = below interaction detection limit; for binding to galectin-1 (in words): text statement on the FAC results
T1 construct: made in house
Protocol: (§1) Various galectin molecules-immobilized columns were prepared by the method described by Nakamura S, Yagi F, Totani K, Ito γ and Hirabayashi J in FEBS J., 272, 2784-2799 (2005), using NHS Sepharose (manufactured by Amersham Bioscience) as the carrier for immobilizing galectin molecules and in accordance with the instructions attached thereto (put in parentheses is immobilization concentration, mg galectin/ml carrier).
(§2) Each galectin molecule was immobilized onto the carrier at the following concentration; galectin-1 (0.8 mg/ml), galectin-3 (0.5 mg/ml), galectin-8N (3.6 mg/ml), galectin-8C (4.0 mg/ml), galectin-9N (3.6 mg/ml), galectin-9C (3.0 mg/ml). The carrier on which each galectin was immobilized was charged into a stainless steel miniature column (2 mm in inner diameter, 10 mm in length; manufactured by Shimadzu Corp.).
(§3) A high performance liquid chromatography (HPLC) system was equipped with a galectin molecule-immobilized column, and the test was carried out by the method described in Nakamura S, Yagi F, Totani K, Ito γ and Hirabayashi J in FEBS J., 272, 2784-2799 (2005).
(§4) As the negative control sample, pyridyl-aminated N-acetylglucosamine (PA-GlcNAc, manufactured by Takara Bio, pyridyl-aminated glycosaminoglycan-oligosaccharide sample control) or pyridyl-aminated pullulan (prepared by carrying out pyridylamination of standard pullulan manufactured by Shodex, pyridyl-aminated glycosaminoglycan polysaccharide sample control) was used, and a V−V0 value was calculated from their eluate volume (V0 value) measured by fluorescence detection and the eluate volume (V value) of the sample, namely pyridyl-aminated glycosaminoglycan carbohydrate, and this was used as the index of interaction strength (Protein, Nucleic Acid and Enzyme, 48(8), 1206-1212 (2003)).
(§5) V−V0 values of pyridyl-aminated glycosaminoglycans (HA, CH, DN, NAH, CSA, CSB, CSC, CSD, CSE, KS-I and KS-II) were calculated based on PA-GlcNAc, and V−V0 values of pyridyl-aminated glycosaminoglycan-oligosaccharides (G2K1, G1L1, G4L4, L2L2, L2L4, L4L4, SL2L4 and CH3 to CH12) based on pyridyl-aminated pullulan, respectively.
(§6) In this connection, when the calculated value of the V−V0 value was less than 5 μl, it was regarded as less than the interaction detection limit in this example.

Galectin-3 = molecular target: T2, Galectin-3 (Homo sapiens, UniProt P17931); assay: FAC affinity test on galectin-immobilized column; settings: for V − V0 Value: pyridyl-aminated carbohydrate, galectin-3 immobilized 0.5 mg/ml, less than 5 μl = below interaction detection limit; for binding to galectin-3 (in words): text statement on the FAC results
T2 construct: made in house
Protocol: as §1, §2, §3, §4, §5, §6

Galectin-8C = molecular target: T3, Galectin-8C (Homo sapiens, UniProt O00214); assay: FAC affinity test on galectin-immobilized column; settings: pyridyl-aminated carbohydrate; galectin-8C immobilized 4.0 mg/ml; less than 5 μl = below interaction detection limit
T3 construct: N and C respectively represent N-terminal side carbohydrate-recognition domain and C-terminal side carbohydrate-recognition domain; made in house
T3 sequence (O00214 187-317 limits assumed): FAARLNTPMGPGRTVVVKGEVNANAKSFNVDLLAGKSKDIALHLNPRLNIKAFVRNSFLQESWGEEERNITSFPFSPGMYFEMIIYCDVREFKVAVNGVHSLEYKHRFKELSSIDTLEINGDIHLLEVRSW
Protocol: as §1, §2, §3, §4, §5, §6

Galectin-8N = molecular target: T4, Galectin-8N (Homo sapiens, UniProt O00214); assay: FAC affinity test on galectin-immobilized column; settings: for V − V0 Value: pyridyl-aminated carbohydrate, galectin-8N immobilized 3.6 mg/ml, less than 5 μl = below interaction detection limit
T4 construct: N and C respectively represent N-terminal side carbohydrate-recognition domain and C-terminal side carbohydrate-recognition domain; made in house
T4 sequence (O00214 19-152 limits assumed): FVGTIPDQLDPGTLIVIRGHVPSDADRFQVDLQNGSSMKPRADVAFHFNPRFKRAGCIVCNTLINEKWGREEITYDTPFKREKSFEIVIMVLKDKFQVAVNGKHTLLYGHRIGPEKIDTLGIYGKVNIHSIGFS
Protocol: as §1, §2, §3, §4, §5, §6

Galectin-9C = molecular target: T5, Galectin-9C (Homo sapiens, UniProt O00182); assay: FAC affinity test on galectin-immobilized column; settings: for V − V0 Value: pyridyl-aminated carbohydrate, galectin-9C immobilized 3.0 mg/ml, less than 5 μl = below interaction detection limit; for binding to galectin-9C (in words): text statement on the FAC results
T5 construct: N and C respectively represent N-terminal side carbohydrate-recognition domain and C-terminal side carbohydrate-recognition domain; made in house
Protocol: as §1, §2, §3, §4, §5, §6

Galectin-9N = molecular target: T6, Galectin-9N (Homo sapiens, UniProt O00182); assay: FAC affinity test on galectin-immobilized column; settings: for V − V0 Value: pyridyl-aminated carbohydrate, galectin-9N immobilized 3.6 mg/ml, less than 5 μl = below interaction detection limit; for binding to galectin-9N (in words): text statement on the FAC results
T6 construct: N and C respectively represent N-terminal side carbohydrate-recognition domain and C-terminal side carbohydrate-recognition domain; made in house
Protocol: as §1, §2, §3, §4, §5, §6

[1] = tested on: tested galectin molecules (galectin-1, 3, 8N, 8C, 9N and 9C); assay: FAC affinity test, statements on the whole panel of tested galectins; settings: Table 3, whole galectin panel
From the text: Using FAC, the present inventors have conducted a comprehensive analysis of the interactions between various galectin molecules (galectin-1, 3, 8N, 8C, 9N and 9C; N and C respectively represent N-terminal side carbohydrate-recognition domain and C-terminal side carbohydrate-recognition domain)-immobilized columns and various fluorescence-labeled glycosaminoglycan molecules. As a result, novel affinity was found by the combination of specific galectin molecules and glycosaminoglycan molecules to thereby accomplish the present invention.
as §3, §4, §6

T2 sequence (P17931 whole entry): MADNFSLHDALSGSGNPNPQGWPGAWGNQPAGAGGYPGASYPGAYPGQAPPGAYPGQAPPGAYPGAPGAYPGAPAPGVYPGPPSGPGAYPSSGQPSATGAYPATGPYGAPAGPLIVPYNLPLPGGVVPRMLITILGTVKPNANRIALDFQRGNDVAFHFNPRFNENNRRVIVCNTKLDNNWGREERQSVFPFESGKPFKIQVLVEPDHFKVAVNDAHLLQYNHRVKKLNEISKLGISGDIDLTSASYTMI
T6 sequence (O00182 17-148 limits assumed): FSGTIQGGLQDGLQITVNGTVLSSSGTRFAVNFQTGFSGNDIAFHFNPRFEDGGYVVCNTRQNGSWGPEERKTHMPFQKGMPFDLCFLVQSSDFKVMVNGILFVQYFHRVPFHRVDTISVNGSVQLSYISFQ
T1 sequence (P09382 whole entry): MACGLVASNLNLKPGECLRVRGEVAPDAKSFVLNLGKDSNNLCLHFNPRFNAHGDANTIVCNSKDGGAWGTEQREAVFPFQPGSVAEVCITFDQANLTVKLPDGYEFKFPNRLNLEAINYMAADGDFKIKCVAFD
T5 sequence (O00182 227-355 limits assumed): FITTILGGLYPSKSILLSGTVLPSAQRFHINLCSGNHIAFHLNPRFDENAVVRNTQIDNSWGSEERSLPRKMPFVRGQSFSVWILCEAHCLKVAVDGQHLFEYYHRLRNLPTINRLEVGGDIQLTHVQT

V − V0 Value (Galectin-1) [µL] | V − V0 Value (Galectin-3) [µL] | V − V0 Value (Galectin-8C) [µL] | V − V0 Value (Galectin-8N) [µL] | V − V0 Value (Galectin-9C) [µL] | V − V0 Value (Galectin-9N) [µL] | binding to the tested galectin molecules (in words) [1] | binding to galectin-1 (in words) (Galectin-1) | binding to galectin-3 (in words) (Galectin-3) | binding to galectin-9C (in words) (Galectin-9C) | binding to galectin-9N (in words) (Galectin-9N) | binding to galectin-8N (in words) (Galectin-8N; text statement on the FAC results) | Compound
<5.0 | <5.0 | <5.0 | <5.0 | <5.0 | <5.0 | did not bind | – | – | – | – | – | CC(=O)NC1C(O)OC(COS(=O)(=O)[O-])C(OC2OC(COS(=O)(=O)[O-])C(O)C(OC3OC(COS(=O)(=O)[O-])C(OC4OC(COS(=O)(=O)[O-])C(O)C(O)C4O)C(O)C3NC(C)=O)C2O)C1O.[Na+].[Na+].[Na+].[Na+] (stereo not drawn) [L4L4, Gal6S β1-4 GlcNAc6S β1-3 Gal6S β1-4 GlcNAc6S]
<5.0 | <5.0 | <5.0 | <5.0 | <5.0 | <5.0 | did not bind | – | – | – | – | – | chondroitin sulfate C [CSC, reference compound]
5.8 ± 0.2 | 15.8 ± 1.8 | <5.0 | <5.0 | 5.3 ± 0.7 | 6.6 ± 1.4 | bound to various galectin molecules | showed binding affinity | showed binding affinity | showed binding affinity | showed binding affinity | – | CC(=O)N[C@H]1[C@H](O[C@H]2[C@@H](O)[C@@H](COS(=O)(=O)O)O[C@@H](O[C@H]3[C@H](O)[C@@H](NC(C)=O)C(O)O[C@@H]3COS(=O)(=O)O)[C@@H]2O)O[C@H](COS(=O)(=O)O)[C@@H](O[C@@H]2O[C@H](CO)[C@H](O)[C@H](O)[C@H]2O)[C@@H]1O (stereo partly drawn) [L2L4, Gal β1-4 GlcNAc6S β1-3 Gal6S β1-4 GlcNAc6S]
<5.0 | <5.0 | <5.0 | <5.0 | <5.0 | <5.0 | did not bind | – | – | – | – | – | dermatan sulfate [CSB, reference compound]
<5.0 | <5.0 | <5.0 | <5.0 | <5.0 | <5.0 | did not bind | – | – | – | – | – | chondroitin sulfate D [CSD, reference compound]
21.8 ± 1.9 | 11.6 ± 0.1 | <5.0 | <5.0 | 6.7 ± 0.2 | 5.1 ± 1.3 | bound to various galectin molecules | showed binding affinity | showed binding affinity | showed binding affinity | showed binding affinity | – | CC(=O)N[C@H]1[C@H](O[C@H]2[C@@H](O)[C@@H](CO)OC(O)[C@@H]2O)O[C@H](CO)[C@@H](O[C@@H]2O[C@H](CO)[C@H](O)[C@H](O)[C@H]2O)[C@@H]1O (stereo partly drawn) [G2K1, Gal β1-4 GlcNAc β1-3 Gal]
<5.0 | <5.0 | <5.0 | <5.0 | <5.0 | <5.0 | did not bind | – | – | – | – | – | Hyaluronan [HA, reference compound]
6.2 ± 1.7 | 22.6 ± 1.1 | <5.0 | <5.0 | 7.7 ± 0.4 | 8.8 ± 0.3 | bound to various galectin molecules | showed binding affinity | showed binding affinity | showed binding affinity | showed binding affinity | – | Gal β1-4 GlcNAc6S β1-3 Gal β1-4 GlcNAc6S [L2L2]
<5.0 | 8.2 ± 0.2 | <5.0 | 26.5 ± 0.9 | <5.0 | <5.0 | bound to various galectin molecules | – | showed binding affinity | – | – | showed binding affinity | CC(=O)NC1C(O)OC(COS(=O)(=O)O)C(OC2OC(COS(=O)(=O)O)C(O)C(OC3OC(COS(=O)(=O)O)C(OC4OC(CO)C(O)C(OC5(C(=O)O)CC(O)C(NC(C)=O)C(C(O)C(O)CO)O5)C4O)C(O)C3NC(C)=O)C2O)C1O (stereo not drawn) [SL2L4, NeuAc α2-3 Gal β1-4 GlcNAc6S β1-3 Gal6S β1-4 GlcNAc6S]
<5.0 | <5.0 | <5.0 | <5.0 | <5.0 | <5.0 | did not bind | – | – | – | – | – | CC(=O)N[C@H]1[C@H](O[C@H]2[C@@H](O)[C@@H](COS(=O)(=O)O)O[C@@H](O[C@H]3[C@H](O)[C@@H](NC(C)=O)C(O)O[C@@H]3COS(=O)(=O)O)[C@@H]2O)O[C@H](COS(=O)(=O)O)[C@@H](O)[C@@H]1O (stereo partly drawn) [G4L4, GlcNAc6S β1-3 Gal6S β1-4 GlcNAc6S]

Compound | V − V0 Value (Galectin-1) [µL] | V − V0 Value (Galectin-3) [µL] | V − V0 Value (Galectin-8C) [µL] | V − V0 Value (Galectin-8N) [µL] | V − V0 Value (Galectin-9C) [µL] | V − V0 Value (Galectin-9N) [µL] | binding to the tested galectin molecules (in words) [1] | binding to galectin-1 (in words) (Galectin-1) | binding to galectin-3 (in words) (Galectin-3) | binding to galectin-9C (in words) (Galectin-9C) | binding to galectin-9N (in words) (Galectin-9N) | binding to galectin-8N (in words) (Galectin-8N; text statement on the FAC results)
chondroitin sulfate A [CSA, reference compound] | <5.0 | <5.0 | <5.0 | <5.0 | <5.0 | <5.0 | did not bind | – | – | – | – | –
